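Exposure lasted 48 hours, with cells grown in 96-well plates and compounds tested at five concentrations. At the GI50, growth is halved.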 Activity calls are given as the source filed them. Cut-off read from the data, not from the text of the source: active = GI50 up to about 1.1 µM and inactive = higher.
Experiments:
Assay in all cases: growth of human tumour cells (NCI), 48 h
OVCAR-3 = test system: OVCAR-3
OVCAR-5 = test system: OVCAR-5
MDA-MB-231 = test system: MDA-MB-231
SF-295 = test system: SF-295
SF-539 = test system: SF-539
M14 = test system: M14
HT-29 = test system: HT-29
786-0 = test system: 786-0
KM12 = test system: KM12
U-251 = test system: U-251
UACC-62 = test system: UACC-62
HL-60 = test system: HL-60
HCT-15 = test system: HCT-15
CCRF-CEM = test system: CCRF-CEM
ACHN = test system: ACHN
TK-10 = test system: TK-10
K562 = test system: K562
OVCAR-4 = test system: OVCAR-4
RXF 393 = test system: RXF 393

Row | SMILES | GI50 (OVCAR-3) | GI50 (OVCAR-5) | GI50 (MDA-MB-231) | GI50 (SF-295) | GI50 (SF-539) | GI50 (M14) | GI50 (HT-29) | GI50 (786-0) | GI50 (KM12) | GI50 (U-251) | GI50 (UACC-62) | GI50 (HL-60) | GI50 (HCT-15) [µM] | GI50 (CCRF-CEM) | GI50 (ACHN) | GI50 (TK-10) | GI50 (K562) | GI50 (OVCAR-4) | GI50 (RXF 393)
1 | Cc1cc(C)c(C)c(-n2[nH]c(=O)n(C)c2=O)c1C | > 100 µM (inactive) | > 100 µM (inactive) | > 100 µM (inactive) | > 100 µM (inactive) | > 100 µM (inactive) | > 100 µM (inactive) | > 100 µM (inactive) | > 100 µM (inactive) | > 100 µM (inactive) | > 100 µM (inactive) | > 100 µM (inactive) | > 100 µM (inactive) | > 100 | > 100 µM (inactive) | > 100 µM (inactive) | > 100 µM (inactive) | > 100 µM (inactive) | – | –
2 | NC(=O)c1nnc2c(F)cccc2c1N | > 100 µM (inactive) | > 100 µM (inactive) | > 100 µM (inactive) | > 100 µM (inactive) | > 100 µM (inactive) | > 100 µM (inactive) | > 100 µM (inactive) | > 100 µM (inactive) | > 100 µM (inactive) | > 100 µM (inactive) | 73.8 µM (inactive) | > 100 µM (inactive) | 92 | 28.7 µM (inactive) | > 100 µM (inactive) | > 100 µM (inactive) | 55.1 µM (inactive) | > 100 µM (inactive) | –
3 | COC(=O)C1=CSC2(S1)C(C(=O)OC)=CSc1c2ss/c1=N\c1ccccc1 (stereo not drawn) | 3.24 µM (inactive) | 3.66 µM (inactive) | 2.07 µM (inactive) | 1.81 µM (inactive) | 1.38 µM (inactive) | 2.02 µM (inactive) | 2.48 µM (inactive) | 1.49 µM (inactive) | 2.68 µM (inactive) | 2.4 µM (inactive) | 1.6 µM (inactive) | – | 1.74 | 1.6 µM (inactive) | 2.56 µM (inactive) | 2.7 µM (inactive) | 2.7 µM (inactive) | 1.87 µM (inactive) | 1.78 µM (inactive)
4 | COC(=O)C(CNC(=O)/C=C/c1ccc(OC(C)=O)c(OC(C)=O)c1)NC(=O)/C=C/c1ccc(OC(C)=O)c(OC(C)=O)c1 (stereo not drawn) | > 100 µM (inactive) | > 100 µM (inactive) | > 100 µM (inactive) | > 100 µM (inactive) | > 100 µM (inactive) | > 100 µM (inactive) | > 100 µM (inactive) | > 100 µM (inactive) | > 100 µM (inactive) | 88.7 µM (inactive) | > 100 µM (inactive) | – | > 100 | 42.4 µM (inactive) | > 100 µM (inactive) | > 100 µM (inactive) | 64.1 µM (inactive) | > 100 µM (inactive) | > 100 µM (inactive)
5 | O=C(CCC1CCCCC1)NCc1ccc(C(=O)O)cc1 | > 100 µM (inactive) | > 100 µM (inactive) | > 100 µM (inactive) | > 100 µM (inactive) | > 100 µM (inactive) | > 100 µM (inactive) | > 100 µM (inactive) | > 100 µM (inactive) | > 100 µM (inactive) | > 100 µM (inactive) | > 100 µM (inactive) | – | > 100 | 47.1 µM (inactive) | > 100 µM (inactive) | > 100 µM (inactive) | > 100 µM (inactive) | > 100 µM (inactive) | > 100 µM (inactive)
6 | CC1=CC(=O)/C(=C(/C)NCCN(CCN/C(C)=C2\C(=O)C=C(C)OC2=O)CCN/C(C)=C2\C(=O)C=C(C)OC2=O)C(=O)O1 | – | > 100 µM (inactive) | > 100 µM (inactive) | > 100 µM (inactive) | > 100 µM (inactive) | > 100 µM (inactive) | > 100 µM (inactive) | > 100 µM (inactive) | > 100 µM (inactive) | > 100 µM (inactive) | – | > 100 µM (inactive) | > 100 | > 100 µM (inactive) | > 100 µM (inactive) | > 100 µM (inactive) | > 100 µM (inactive) | > 100 µM (inactive) | –
7 | C[C@]12CC[C@H]3[C@@H](CCC4=CC(=O)CC[C@@]43C)[C@@H]1CC[C@@H]2C(=O)Nc1ccc([N+](=O)[O-])c(C(F)(F)F)c1 | 22.8 µM (inactive) | > 10 µM (inactive) | 17.1 µM (inactive) | 17.1 µM (inactive) | 18.7 µM (inactive) | – | 18.2 µM (inactive) | 16.6 µM (inactive) | 16 µM (inactive) | 17.1 µM (inactive) | 15.3 µM (inactive) | 39.4 µM (inactive) | 12 | 24.7 µM (inactive) | 18.7 µM (inactive) | 19 µM (inactive) | 26.6 µM (inactive) | 15.3 µM (inactive) | –
8 | C#C[C@]1(O)CC[C@H]2[C@@H]3CCC4=C/C(=N/OC(=O)c5cccc6c(=O)c7ccccc7[nH]c56)CCC4[C@H]3CC[C@@]21CC (stereo partly drawn) | 18.7 µM (inactive) | > 100 µM (inactive) | 54.8 µM (inactive) | 3.69 µM (inactive) | – | 34.5 µM (inactive) | 8.28 µM (inactive) | 4.91 µM (inactive) | 20.1 µM (inactive) | 9.89 µM (inactive) | 20.4 µM (inactive) | 2.44 µM (inactive) | 13.4 | 8.05 µM (inactive) | 26.2 µM (inactive) | > 100 µM (inactive) | 10.9 µM (inactive) | 49.3 µM (inactive) | 2.34 µM (inactive)
9 | Clc1ccc(CNc2nc(Cl)c3nc[nH]c3n2)cc1Cl | 18.9 µM (inactive) | > 100 µM (inactive) | 30.8 µM (inactive) | 20 µM (inactive) | 13.5 µM (inactive) | 20.8 µM (inactive) | 26.4 µM (inactive) | 27.7 µM (inactive) | 29.2 µM (inactive) | 36.2 µM (inactive) | 11.2 µM (inactive) | – | 27 | 35.5 µM (inactive) | 31.2 µM (inactive) | 12.2 µM (inactive) | 20.3 µM (inactive) | 35.4 µM (inactive) | 30.9 µM (inactive)
10 | O=C(O)Cc1cc(O)c(CC(=O)O)cc1O | > 100 µM (inactive) | > 100 µM (inactive) | > 100 µM (inactive) | > 100 µM (inactive) | – | > 100 µM (inactive) | > 100 µM (inactive) | > 100 µM (inactive) | > 100 µM (inactive) | > 100 µM (inactive) | > 100 µM (inactive) | > 100 µM (inactive) | > 100 | – | > 100 µM (inactive) | > 100 µM (inactive) | > 100 µM (inactive) | > 100 µM (inactive) | > 100 µM (inactive)
11 | N#Cc1c(-c2ccccc2)[nH]c(=O)n(C2OC(CO)C(O)C(O)C2O)c1=O (stereo not drawn) | > 100 µM (inactive) | > 100 µM (inactive) | > 100 µM (inactive) | > 100 µM (inactive) | > 100 µM (inactive) | > 100 µM (inactive) | > 100 µM (inactive) | > 100 µM (inactive) | > 100 µM (inactive) | > 100 µM (inactive) | > 100 µM (inactive) | – | > 100 | > 100 µM (inactive) | > 100 µM (inactive) | > 100 µM (inactive) | > 100 µM (inactive) | > 100 µM (inactive) | > 100 µM (inactive)
12 | CC1OC(OC2C(O)COC(OC3C(C)OC(OC4C(OC(=O)[C@]56CCC(C)(C)C[C@@H]5C5=CCC7[C@@]8(C)C[C@H](O)[C@H](OC9OC(CO)C(O)C(OC%10OC(CO)C(O)C(O)C%10O)C9O)[C@@](C)(CO)[C@@H]8CC[C@@]7(C)[C@]5(C)CC6)OCC(O)C4O)C(O)C3O)C2O)C(O)C(O)C1O (stereo partly drawn) | 14.9 µM (inactive) | 12.2 µM (inactive) | 16.3 µM (inactive) | 14.4 µM (inactive) | 18.4 µM (inactive) | 13 µM (inactive) | 17.2 µM (inactive) | 16.1 µM (inactive) | 18.8 µM (inactive) | 17.5 µM (inactive) | 22.3 µM (inactive) | – | 19.7 | 14.7 µM (inactive) | 17.7 µM (inactive) | 18.8 µM (inactive) | 31.2 µM (inactive) | 14.9 µM (inactive) | 12.1 µM (inactive)
13 | OCC(O)COCn1cc(Cn2ncc3c(O)ncnc32)nn1 (stereo not drawn) | > 100 µM (inactive) | > 100 µM (inactive) | > 100 µM (inactive) | > 100 µM (inactive) | > 100 µM (inactive) | > 100 µM (inactive) | > 100 µM (inactive) | > 100 µM (inactive) | > 100 µM (inactive) | > 100 µM (inactive) | > 100 µM (inactive) | > 100 µM (inactive) | > 100 | > 100 µM (inactive) | > 100 µM (inactive) | > 100 µM (inactive) | > 100 µM (inactive) | > 100 µM (inactive) | –
14 | O=C(CC(C(=O)c1cccs1)c1ccsc1)c1ccc(Cl)cc1 (stereo not drawn) | – | > 100 µM (inactive) | > 100 µM (inactive) | > 100 µM (inactive) | > 100 µM (inactive) | > 100 µM (inactive) | > 100 µM (inactive) | > 100 µM (inactive) | > 100 µM (inactive) | > 100 µM (inactive) | > 100 µM (inactive) | > 100 µM (inactive) | > 100 | > 100 µM (inactive) | > 100 µM (inactive) | > 100 µM (inactive) | > 100 µM (inactive) | > 100 µM (inactive) | –
15 | O=C(O)CN1CCNCCNCC1 | > 100 µM (inactive) | > 100 µM (inactive) | > 100 µM (inactive) | – | > 100 µM (inactive) | > 100 µM (inactive) | > 100 µM (inactive) | > 100 µM (inactive) | 59.6 µM (inactive) | > 100 µM (inactive) | > 100 µM (inactive) | 0.9 µM (active) | > 100 | > 100 µM (inactive) | > 100 µM (inactive) | > 100 µM (inactive) | > 100 µM (inactive) | > 100 µM (inactive) | –
